Measurements from article PMC3399817 (PLoS ONE, 2012).

How the values were obtained:
Format in all cases: cell-based
DKs-8 = test: Cell viability (Syto60); conditions: DKs-8, 72 hours, 1 μM
Method: (§1) All colon cancer cell lines were maintained in DMEM supplemented with penicillin (100 units/mL), streptomycin (100 μg/mL), and 10% fetal bovine serum (FBS). The rectal cancer cell line (Car1) was maintained in DMEM/F12 supplemented with penicillin (100 units/mL)/streptomycin (50 μg/mL), and 5% FBS. […] The target sequences for knockdowns can be found in Table S2. In drug treatment experiments, cells were plated for 24 hours prior to exposure to drug. AZ-628 was obtained from AstraZeneca. CI-1040 was obtained from Pfizer. R406 was synthesized in the Gray laboratory. BAY61-3606 and IKK VII were purchased from EMD Biosciences. BAY derivatives were synthesized for this study.
(§2) Cell cycle analysis was performed via FACS-based propidium iodide quantification, using standard methods. To measure cell viability, cells were grown in 96-well plates in the presence or absence of drug for 72 hours, fixed with 4% paraformaldehyde, and then stained with Syto60 (Invitrogen). Plates were imaged and quantified using the LiCor Odyssey system (LiCor).

DLD-1 cells = test: Cell viability (Syto60); conditions: DLD-1, 72 hours, 1 μM
Method: as §1, §2

HKe-3 (K-RAS^−/+) = test: Cell viability (Syto60); conditions: 72 hours; for cooperation with / sensitization to AZ-628 (cell viability): K-RAS wild-type cells (HKe-3), 1 µM AZ-628
Method: as §1, §2

HCT-116 (K-RAS^G13D/+) = test: Cell viability (Syto60); conditions: 72 hours, HCT-116 compared to HKe-3, normalized to DMSO
Method: as §1, §2

[1] = tested on: colorectal cancer cells expressing mutant B-RAF (V600E) (HT-29, RKO); test: Cell viability (Syto60); conditions: HT-29 and RKO, 72 hours
Method: as §1, §2

HT-29 (B-RAF^V600E/+) = test: Cell cycle analysis (propidium iodide FACS); conditions: cell lines that express mutant B-RAF (HT-29)
Method: as §2

[2] = tested on: phospho-MEK1 (Ser217/Ser221) and phospho-ERK1/2 (Thr202/Tyr204, Thr185/Tyr187); test: Bio-Plex phospho-MEK1 and phospho-ERK1/2; conditions: 45 minute exposure, 1 µM, K-RAS wild-type and mutant cells
Method: (§3) The Bio-Plex assay system was used to measure signaling in drug-treated cells. Briefly, cells were incubated in the presence of drug for various amounts of time and then lysed in Bio-Rad cell lysis buffer (Bio-Rad). Protein quantification was performed using BCA assay (Pierce) and 5 µg of protein from each sample was used for Bio-Plex analysis. Phospho-signaling assays were performed using available phospho-signaling assay kits and quantified on a Bio-Plex 200 system (Bio-Rad): p-Iκβα (Ser32/Ser36), p-JNK (Thr183/Tyr185), p-MEK1 (Ser217/Ser221), p-ERK1/2 (Thr202/Tyr204, Thr185/Tyr187), p-p90RSK (Thr359/Ser363), p-p38 (Thr180/Tyr182), p-c-JUN (Ser63), p-ATF2 (Thr71), p-AKT (Ser473), p-S6 (Ser235/Ser236), p-STAT3 (Ser727), p-STAT3 (Tyr705), and p-GSK3α/β (Ser21/Ser9). Bio-Plex assay for total MEK1 was also performed as a loading control.

[3] = tested on: phospho-Iκβα (Ser32/Ser36); test: Bio-Plex phospho-Iκβα; conditions: HKe-3 cells, 1 µM
Method: as §3

[4] = tested on: phospho-JNK (Thr183/Tyr185); test: Bio-Plex phospho-JNK; conditions: HKe-3 cells, 1 µM
Method: as §3

Structure (SMILES): COc1cc(Nc2ncc(F)c(Nc3ccc4c(n3)NC(=O)C(C)(C)O4)n2)cc(OC)c1OC [R406]
- sensitivity (cell viability) (DKs-8): did not exhibit sensitivity
- sensitivity (cell viability) (DLD-1 cells): did not exhibit sensitivity

Structure (SMILES): O=C(c1ccc(Nc2nccc(-c3cc4ccccc4s3)n2)cc1)N1CCC(N2CCCC2)CC1 [IKK inhibitor VII]
- sensitization to AZ-628 (cell viability) (HKe-3 (K-RAS^−/+); HKe-3 cells with MAP4K2 knockdown, 1 µM + 1 µM AZ-628): abrogated the ability of IKK inhibitor VII to sensitize
- cooperation with / sensitization to AZ-628 (cell viability) (HKe-3 (K-RAS^−/+)): enhanced the effect of AZ-628

Structure (SMILES): Oc1c2ccccc2c2c3c(cccc13)N=N2 [SP600125]
- cooperation with / sensitization to AZ-628 (cell viability) (HKe-3 (K-RAS^−/+)): did not affect AZ-628 sensitivity

Structure (SMILES): O=C(NOCC1CC1)c1ccc(F)c(F)c1Nc1ccc(I)cc1Cl [CI-1040]
- sensitivity of cells expressing mutant K-RAS (cell viability) (HCT-116 (K-RAS^G13D/+)): insensitive
- cell viability, combination of BAY61-3606 and CI-1040 [1]: cooperated to produce an enhanced response
- sensitivity of cells expressing mutant B-RAF (cell viability) ([1]; single agent): sensitive
- cell cycle effect (HT-29 (B-RAF^V600E/+)): induced G1 arrest

Structure (SMILES): Cc1ccc(NC(=O)c2cccc(C(C)(C)C#N)c2)cc1Nc1ccc2ncn(C)c(=O)c2c1 [AZ-628]
- sensitivity of cells expressing mutant K-RAS (cell viability) (HCT-116 (K-RAS^G13D/+)): relatively sensitive
- MEK and ERK phosphorylation [2]: suppressed MEK and ERK phosphorylation
- Iκβα phosphorylation [3]: further induced
- JNK activation [4]: strongly activated
